Source: patent publication US20050064510A1, “Ligand analysis” (priority 2003, published 2005)

The compounds below were run against T1, muscarinic acetylcholine receptor M2 (Cavia porcellus, UniProt H0VRN8) (assay: Tissue-based assay for M2 antagonism). Conditions: not given.
T1 sequence (H0VRN8 1-466): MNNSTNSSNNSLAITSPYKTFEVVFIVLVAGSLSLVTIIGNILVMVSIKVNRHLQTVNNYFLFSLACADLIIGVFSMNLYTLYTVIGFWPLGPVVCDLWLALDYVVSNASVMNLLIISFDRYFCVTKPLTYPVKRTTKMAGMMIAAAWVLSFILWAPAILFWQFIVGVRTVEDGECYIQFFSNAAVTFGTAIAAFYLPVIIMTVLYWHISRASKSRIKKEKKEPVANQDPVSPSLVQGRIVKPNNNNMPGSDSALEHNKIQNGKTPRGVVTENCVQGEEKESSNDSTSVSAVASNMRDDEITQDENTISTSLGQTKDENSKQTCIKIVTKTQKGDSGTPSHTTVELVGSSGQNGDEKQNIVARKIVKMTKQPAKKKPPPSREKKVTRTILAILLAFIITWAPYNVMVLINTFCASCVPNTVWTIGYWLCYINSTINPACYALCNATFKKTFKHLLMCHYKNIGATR

activity in tissue | Compound
significant activity | O=C(N[C@H]1CCCC[C@@H]1OCc1ccccc1)c1coc(-c2ccc(C(=O)N3CCC(N4CCCC4)CC3)cc2)n1 [NGD-3350]

Each compound was assayed against T2, Serine Kinase Zap-70 (Homo sapiens, UniProt P43403) (assay: AS-MS dissociation kinetics after quench with excess Staurosporine). Conditions: read-out: Dissociation rate ks2 (converted).
T2 sequence (P43403 1-619): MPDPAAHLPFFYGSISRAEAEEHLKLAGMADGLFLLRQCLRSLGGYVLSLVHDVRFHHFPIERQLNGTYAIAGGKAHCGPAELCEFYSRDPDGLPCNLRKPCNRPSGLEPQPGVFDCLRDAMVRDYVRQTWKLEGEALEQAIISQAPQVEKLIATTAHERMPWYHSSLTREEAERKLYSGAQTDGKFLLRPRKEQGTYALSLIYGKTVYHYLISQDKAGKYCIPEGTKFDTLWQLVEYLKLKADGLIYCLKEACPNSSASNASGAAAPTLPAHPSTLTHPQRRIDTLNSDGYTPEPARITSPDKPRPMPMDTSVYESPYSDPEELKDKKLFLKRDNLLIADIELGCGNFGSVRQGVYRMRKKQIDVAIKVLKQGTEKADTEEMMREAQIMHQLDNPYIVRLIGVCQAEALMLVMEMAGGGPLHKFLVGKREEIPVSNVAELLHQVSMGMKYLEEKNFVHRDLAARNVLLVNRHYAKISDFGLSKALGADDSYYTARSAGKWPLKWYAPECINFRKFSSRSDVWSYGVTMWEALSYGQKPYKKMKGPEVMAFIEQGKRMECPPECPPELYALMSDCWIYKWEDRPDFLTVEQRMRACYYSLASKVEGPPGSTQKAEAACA
Type: binding
Method: A mixture of 9 μM Zap-70 and 1 μM NGD-6380 is prepared and incubated at room temperature for 30 minutes, a time sufficient for the mixture to reach equilibrium of bound and unbound components. […] The resulting dissociation of NGD-6380 is measured over time at intervals of 20, 30, 40, 60, 70, 80, and 100 minutes. The dissociation of NGD-6380 is measured in the following manner. […] Any amount of NGD-6380 which is not bound to the Zap-70 is separated from the Zap-70-NGD-6380 complex by the size exclusion step. […] Thus, the dissociation of […] is seen by the decreasing amount of the signal response of the NGD-6380 over time. The decrease in the signal response of the NGD-6380 is plotted as a function of time and the experimental data is fit to the exponential decay function of formula (XVIII) using the program Mathematical (Wolfram Research Inc., version 4.1). [ES]=[ES]0e^-ks2·t formula (XVIII) A mixture of 9 μM Zap-70 and 1 μM of a mixture of the ligands depicted in Table 3 is prepared and incubated at room temperature for 30 minutes, a time sufficient for the mixture to reach equilibrium of bound and unbound components. […] The decrease in the signal response of the ligands is plotted as a function of time and the experimental data is fit to the exponential decay function of formula (XVIII) using the program Mathematica®. [ESi]=[[…] formula (XVIII)

koff [s⁻¹] | Compound
0.000138 | O=C(c1cc(NCc2ccc(C(F)(F)F)cc2)nc2ccc(-c3ccc4c(c3)OCO4)cc12)N1CCC[C@H]1CN1CCCC1 [NGD-6380]
0.00021 | CC(CNc1cc(C(=O)N2CCC[C@H]2CN2CCCC2)c2cc(-c3ccc4c(c3)OCO4)ccc2n1)c1ccccc1 (stereo partly drawn) [NGD-6390]
6.5e-05 | CCN(Cc1ccccc1)c1cc(C(=O)N2CCC[C@H]2CN2CCCC2)c2cc(-c3ccc4c(c3)OCO4)ccc2n1 [NGD-6423]
0.000117 | CN(Cc1ccc(Cl)c(Cl)c1)c1cc(C(=O)N2CCC[C@H]2CN2CCCC2)c2cc(-c3ccc4c(c3)OCO4)ccc2n1 [NGD-6432]
0.000107 | O=C(c1cc(NCc2ccc(C(F)(F)F)cc2)nc2ccc(-c3ccc4c(c3)OCCO4)cc12)N1CCC[C@H]1CN1CCCC1 [NGD-6862]

Continued, compound first:

Compound | koff [s⁻¹]
CN(Cc1ccccc1)c1cc(C(=O)N2CCC[C@H]2CN2CCCC2)c2cc(-c3ccc4c(c3)OCO4)ccc2n1 [NGD-6073] | 0.000117
O=C(c1cc(NCc2cccc(F)c2)nc2ccc(-c3ccc4c(c3)OCO4)cc12)N1CCC[C@H]1CN1CCCC1 [NGD-6367] | 0.000493
O=C(c1cc(NCc2ccc(Cl)cc2)nc2ccc(-c3ccc4c(c3)OCO4)cc12)N1CCC[C@H]1CN1CCCC1 [NGD-6371] | 0.000275
